Results: article PMC5564600 (Oncotarget, 2017)

Tests used:
panel of 442 kinases [1] = biological target: panel of 442 kinases (Homo sapiens, UniProt P42336, H1047L); assay: biochemical; assay type: binding; conditions: kinase PIK3CA(H1047L); 1 µM; read-out: % of control at 1 µM
panel of 442 kinases [2] = biological target: panel of 442 kinases (Homo sapiens, UniProt P42336, C420R); assay: biochemical; assay type: binding; conditions: kinase PIK3CA(C420R); 1 µM; read-out: % of control at 1 µM
panel of 442 kinases [3] = biological target: panel of 442 kinases (Homo sapiens, UniProt P42336); assay: biochemical; assay type: binding; conditions: kinase PIK3CA; 1 µM; read-out: % of control at 1 µM
panel of 442 kinases [4] = biological target: panel of 442 kinases (Homo sapiens, UniProt P42336, Q546K); assay: biochemical; assay type: binding; conditions: kinase PIK3CA(Q546K); 1 µM; read-out: % of control at 1 µM
PI3Kγ = PI3Kγ (Homo sapiens, UniProt P48736); assay: PI3K (human) HTRF assay, PI3Kγ; assay type: biochemical; conditions: ATP 10 μM, mean ± SEM
mTOR = mTOR (Homo sapiens, UniProt P42345); assay: SelectScreen Z'LYTE kinase assay (Invitrogen), mTOR; assay type: biochemical; conditions: determined by Invitrogen, mean ± SEM, n=2
panel of 442 kinases [5] = biological target: panel of 442 kinases (Homo sapiens, UniProt Q16584); assay: biochemical; assay type: binding; conditions: kinase MLK3; 1 µM; read-out: % of control at 1 µM

SMILES: Cn1c(=O)n(-c2ccc(C(C)(C)C#N)cc2)c2c3cc(-c4cnc5ccccc5c4)ccc3ncc21 [Dactolisib, 2-methyl-2-[4-(3-methyl-2-oxo-8-quinolin-3-yl-2,3-dihydroimidazo[4,5-c]quinolin-1-yl)-phenyl] propionitrile]
- remaining activity at 1 µM (panel of 442 kinases [1]): 0.15%
- remaining activity at 1 µM (panel of 442 kinases [2]): 8.1%

SMILES: COc1ncc(-c2ccc3nccc(-c4ccnnc4)c3c2)cc1NS(=O)(=O)c1ccc(F)cc1F [Omipalisib]
- remaining activity at 1 µM (panel of 442 kinases [1]): 5.6%
- remaining activity at 1 µM (panel of 442 kinases [3]): 0%
- remaining activity at 1 µM (panel of 442 kinases [4]): 0.1%
- remaining activity at 1 µM (panel of 442 kinases [2]): 0%
- IC50 (PI3Kγ): 1.2 ± 0.2 nM

SMILES: FC(F)c1nc2ccccc2n1-c1nc(N2CCOCC2)nc(N2CCOCC2)n1 [ZSTK474, 2-(difluoromethyl)-1-[4,6-di(4-morpholinyl)-1,3,5-triazin-2-yl]-1H-benzimidazole]
- IC50 (mTOR): 102 ± 19 nM
- remaining activity at 1 µM (panel of 442 kinases [5]): 56%
